Experimental findings from patent US20110212909A1, “Use of Ginsenoside Compound K in the Preparation of a Medicament for the Prevention and Treatment of Atherosclerosis” (priority 2008, published 2011) are described below.

Marks after values point to notes of the source that are not given here. Some results are limits rather than exact numbers.

The subject of data set [1] is Kunming mice. In words: Primary survey for toxicity in mice (gavage, 14 days). The class given is in vivo. On the procedure: 40 Kunming mice (weight 18-22 g) were randomly divided into blank group of 20 mice, and ginsenoside compound K group of 20 mice, wherein male and female mice were fifty-fifty in each group. Fasting was carried out before trial for 16 h, allowing mice to freely drink water. Each mouse in drug group was gavaged with ginsenoside compound K (bought from) suspension according to a dose of 400 mg/kg, and blank group was gavaged equivalent amount of distilled water, with administration carried out once a day. Observation was carried out for 14 days after administration, wherein mice were weighted and animal responses were observed each day. The mice were weighted on fourteenth day of the trial, then were sacrificed and dissected, and tissue change of mice's major organs such as heart, liver, spleen, lung, and kidney were observed.
There was no phenomena such as abnormal crying, tremor, convulsion, dyskinesias, salivation, lacrimation, nose running, respiration difficulty, rapid heartbeat or slow heartbeat, diarrhea, constipation, intestinal tympanites in drug group mice; mice's hair was glossy; No mouse died in 14 days of administration.

Data set [2] deals with perilipin protein. In words: Protein expression of perilipin in foam cells. The conditions noted are these: 25 μM, rat foam cells. The class given is cell-based. On the procedure: FIG. 3 provides effects of a ginsenoside compound K (C-K, 25 μM) and pyrrolidine dithiocarbamate (PDTC, 25 μM) on the protein expression of perilipin in foam cell. a: P<0.01, vs foam cell group PDTC (25 μM) C-K (25 μM) (n=5).
(1) Material and reagents (the same as Examples 2).
Data was expressed as x±s, variance analysis were carried out between groups by SPSS 13.0 software.

Data set [3] deals with hs-CRP. Kind of data set: Serum hs-CRP by double antibody sandwich ELISA in apo E−/− mice. It counts as in vivo, mouse. The conditions noted are these: 15 weeks. How it is done:
(§1) 80 healthy clean grade C57BL/6J apo E^−/^− mice of 10 weeks old, wherein male and female mice were fifty-fifty, weight 20-22 g, were breed and divided into individual cage in sterile laminar flow rack, allowing mice to freely drink water and get food. Mice were raised for 30 weeks by “Western Diet” (routine mouse feed +0.15% cholesterol +21% fat) high fat feed (^60cobalt sterilization radiation treatment), with raising conditions being SPF grade, room temperature maintained at 24° C., relative humidity of 50%, and lighting time of 7: 30-19: 30. Animal house was sterilized by ultraviolet lamp once every two days, in order to maintain sterile environment of laminar flow rack (establishment of animal model of atherosclerosis refers to reference: Barish G D, Atkins A R, Downes M, Olson P, Chong L W, Nelson M, Zou Y H, Hwang H S, Kang H J, Curtiss L, Evans R M, Lee C H. PPARδ regulates multiple proinflammatory pathways to suppress atherosclerosis. Proc Natl Acad Sci, 2008, 105 (11): 4271-4276.).
5 mice of apo E^−/^− mice raised for 15 weeks were randomly selected and sacrificed, root of aorta of which was taken, and replication condition in AS model was observed by HE staining. The remaining mice were randomly divided into 5 groups as follows (n=15): […]
Above drugs were firstly solved in DMSO, then suspended in 0.5% carboxymethylcellulose solution, mixed homogeneously, and then were administered via gavage, once a day. Mice were weighted once a week, and ingestion amounts were recorded, and drug doses were adjusted according to weight, interfering for 15 weeks. […]
• blood fat assay: TC, TG, HDL-C, and LDL-C concentrations in serum were determined by applying Olympus Au2700 fully automatic biochemical appearance. • serum inflammatory markers assay: hs-CRP and sCD40L concentrations were determined by applying double antibody sandwich ELISA, in accordance with ELISA kit operating instruction (hs-CRP ELISA kit bought from Herrenberg company, Germany; sCD40L ELISA kit bought from Bender Medsystems company, Austria). • real-time quantitative PCR analysis was carried out on expression of CD36, perilipin, ABCA1, LXRα, MMP-9 and NF-κ B mRNA in apo E^−/^− mouse aorta (a reference method: Zhang Yiguan, Li Xiaohui, Fan Jishan, Zhang Haigang, Li Shuhui, Liao Wenqiang, Pang Yan, Jia Yi. […] 2007, 27 (11): 1601-1607)0 • morphology index image analysis: When slices were HE stained, under X40 fold ordinary light microscope, artery atherosclerosis plaque area of each incisal surface was determined by “Image Pro Plus 5.0” image analysis software. […]
In general terms: ELISA stands for enzyme-linked immunosorbent assay.

Data set [4] relates to apo E−/− mouse. Kind of data set: Blood fat assay in serum of apo E−/− mice on Western Diet. It counts as in vivo. The conditions noted are these: for HDL-C in serum / LDL-C in serum / TC in serum / TC-HDL/HDL / TG in serum: 15 weeks. On the procedure:
as §1
5 mice of apo E^−/^− mice raised for 15 weeks were randomly selected and sacrificed, root of aorta of which was taken, and replication condition in AS model was observed by HE staining. The remaining mice were randomly divided into 5 groups as follows (n=15):
A. model group: vehicle; B. ginsenoside compound K low dose group: ginsenoside compound K 12.5 mg/kg/day; C. ginsenoside compound K middle dose group: ginsenoside compound K 25.0 mg/kg/day; D. ginsenoside compound K high dose group: ginsenoside compound K 50.0 mg/kg/day; E. simvastatin control group: simvastatin 10.0 mg/kg/day.
Above drugs were firstly solved in DMSO, then suspended in 0.5% carboxymethylcellulose solution, mixed homogeneously, and then were administered via gavage, once a day. Mice were weighted once a week, and ingestion amounts were recorded, and drug doses were adjusted according to weight, interfering for 15 weeks. All the animal were sacrificed in 30th week.
apo E^−/^− mouse serum sample: apo E^−/^− mice were interfered by drug for 15 weeks, then were fasted for 12 hours before sampling. Before being sacrificed, mice were anesthetized by 0.5-1.0 mL 1% Pentobarbital via abdominal cavity, and under sterile condition, 1.5 mL blood form their eye sockets venous plexus was sampled, and centrifugated at 2500 r/min for 10 minutes, and then serum was separated, and frozen and stored at −80° C., for determining blood fat concentrations and inflammatory markers in serum.
• blood fat assay: TC, TG, HDL-C, and LDL-C concentrations in serum were determined by applying Olympus Au2700 fully automatic biochemical appearance. • serum inflammatory markers assay: hs-CRP and sCD40L concentrations were determined by applying double antibody sandwich ELISA, in accordance with ELISA kit operating instruction (hs-CRP ELISA kit bought from Herrenberg company, Germany; sCD40L ELISA kit bought from Bender Medsystems company, Austria). • real-time quantitative PCR analysis was carried out on expression of CD36, perilipin, ABCA1, LXRα, MMP-9 and NF-κ B mRNA in apo E^−/^− mouse aorta (a reference method: Zhang Yiguan, Li Xiaohui, Fan Jishan, Zhang Haigang, Li Shuhui, Liao Wenqiang, Pang Yan, Jia Yi. Total panax notoginsenosides suppress atherosclerosis formation in rats by means of antiinflammatory and blood fat regulating action. Progress in Modern Biomedicine. 2007, 27 (11): 1601-1607)0 • morphology index image analysis: When slices were HE stained, under X40 fold ordinary light microscope, artery atherosclerosis plaque area of each incisal surface was determined by “Image Pro Plus 5.0” image analysis software. Plaque area (PA), vessel cross section area (CVA), lipid core area (LCA), and minimal fibrous cap thickness (mFCT) were measured, and corrected plaque area (plaque area/vessel cross section area, PA/CVA) and corrected lipid core area (lipid core area/plaque area, LCA/PA) were calculated, and average of 4 incisal surfaces was taken for each sample. […]

Setting [5] is: C-K high dose 50.0 mg/kg/day gavage.
The mark [6] stands for this setting: C-K middle dose 25.0 mg/kg/day gavage.
Where [7] appears, read: simvastatin 10.0 mg/kg/day gavage.

`CC(C)=CCC[C@](C)(OC1OC(CO)C(O)C(O)C1O)C1CC[C@]2(C)C1[C@H](O)CC1[C@@]3(C)CC[C@H](O)C(C)(C)C3CC[C@]12C` (stereo partly drawn) [C-K, 20-O-β-D-glucopyranosyl 20-(S)-protopanaxadiol]: in data set [1] (Kunming mice, 400 mg/kg gavage), the “mice's response to acute toxicity” value is on record as “not obvious”. For the same compound, in data set [1] (Kunming mice, 400 mg/kg gavage), the “time until signs after gavage (eye closed, lying down, reduced autonomic activities, appetite descent) restored normal” value is at most 2 h. In addition, the “death of mice in 14 days of administration” value in data set [1] (Kunming mice, 400 mg/kg gavage once a day, 14 days) is recorded as “No mouse died”. In addition, the “organs observed by naked eye after dissection” value in data set [1] (mouse, in vivo, 400 mg/kg) was “no abnormality in each organ”. Further, the “expression of perilipin proteins in foam cells compared with model group” value in data set [2] was “significantly down-regulated”. In addition, the “hs-CRP concentration in serum” value in data set [3] (setting [5]) is given as 6.14 ± 0.29^a ng/mL; in data set [3] (C-K low dose 12.5 mg/kg/day gavage, model 8.13 ± 0.51), 6.68 ± 0.54^a ng/mL; in data set [3] (setting [6]) it was 6.49 ± 0.36^a ng/mL. Also, in data set [4] (C-K 12.5-50.0 mg/kg/day vs simvastatin 10.0 mg/kg/day), the “action in regulating blood fat compared with simvastatin” value is recorded as “not as good as that of simvastatin”. For the same compound, the HDL-C in serum is recorded as 4.42 ± 1.06^a mmol/L in data set [4] (setting [5]); 4.08 ± 1.32^a mmol/L in data set [4] (C-K low dose 12.5 mg/kg/day gavage, model 3.79 ± 1.17); 4.12 ± 1.15^a mmol/L in data set [4] (setting [6]). The LDL-C in serum is recorded as 6.11 ± 1.18^a mmol/L in data set [4] (setting [5]); 6.45 ± 1.30^a mmol/L in data set [4] (C-K low dose 12.5 mg/kg/day gavage, model 6.99 ± 1.09); 6.34 ± 1.22^a mmol/L in data set [4] (setting [6]). The TC in serum in data set [4] (setting [5]) was 20.48 ± 4.34^b mmol/L; in data set [4] (C-K low dose 12.5 mg/kg/day gavage, model 23.59 ± 3.79), 21.79 ± 4.53^a mmol/L; in data set [4] (setting [6]), 21.29 ± 4.44^a mmol/L. For the same compound, the TC-HDL/HDL in data set [4] (setting [5]) was 3.63 ± 0.10^b; in data set [4] (C-K low dose 12.5 mg/kg/day gavage, model 5.24 ± 0.36), 4.34 ± 0.16^a; in data set [4] (setting [6]), 4.17 ± 0.13^b. Further, the TG in serum in data set [4] (setting [5]) was 2.19 ± 0.51^b mmol/L; in data set [4] (C-K low dose 12.5 mg/kg/day gavage, model 2.65 ± 0.39) it was 2.32 ± 0.41^a mmol/L; in data set [4] (setting [6]) it was 2.28 ± 0.32^a mmol/L.
With `CCC(C)(C)C(=O)O[C@H]1C[C@@H](C)C=C2C=C[C@H](C)[C@H](CC[C@@H]3C[C@@H](O)CC(=O)O3)[C@H]21` [simvastatin, reference compound], the “hs-CRP concentration in serum” value in data set [3] (setting [7]) was 4.57 ± 0.68^b ng/mL. In data set [4] (setting [7]), the HDL-C in serum came to 3.80 ± 1.12 mmol/L, the LDL-C in serum is 1.73 ± 1.36^b mmol/L, the TC in serum is listed as 13.62 ± 4.49^b mmol/L and the TC-HDL/HDL was 2.58 ± 0.18^b. For the same compound, in data set [4] (setting [7]), the TG in serum is reported as 1.34 ± 0.46^b mmol/L.
